Assay results from ChEMBL document CHEMBL3991601, “The target landscape of clinical kinase drugs” (Science, 2017).
Activity calls are given as the source filed them. For most assays here, no stated cut-off is given here; in the data, actives have a measured Kd and inactives only a lower limit.

Experiments:
[1] = biological target: Serine/threonine-protein kinase MRCK alpha (Homo sapiens, UniProt Q5VT25)
[2] = biological target: Tyrosine-protein kinase Fyn (Homo sapiens, UniProt P06241)
[3] = biological target: GTP-binding protein 4 (Homo sapiens, UniProt Q9BZE4)
[4] = biological target: T1, Interleukin-1 receptor-associated kinase 3 (Homo sapiens, UniProt Q9Y616)
T1 sequence (Q9Y616 whole entry): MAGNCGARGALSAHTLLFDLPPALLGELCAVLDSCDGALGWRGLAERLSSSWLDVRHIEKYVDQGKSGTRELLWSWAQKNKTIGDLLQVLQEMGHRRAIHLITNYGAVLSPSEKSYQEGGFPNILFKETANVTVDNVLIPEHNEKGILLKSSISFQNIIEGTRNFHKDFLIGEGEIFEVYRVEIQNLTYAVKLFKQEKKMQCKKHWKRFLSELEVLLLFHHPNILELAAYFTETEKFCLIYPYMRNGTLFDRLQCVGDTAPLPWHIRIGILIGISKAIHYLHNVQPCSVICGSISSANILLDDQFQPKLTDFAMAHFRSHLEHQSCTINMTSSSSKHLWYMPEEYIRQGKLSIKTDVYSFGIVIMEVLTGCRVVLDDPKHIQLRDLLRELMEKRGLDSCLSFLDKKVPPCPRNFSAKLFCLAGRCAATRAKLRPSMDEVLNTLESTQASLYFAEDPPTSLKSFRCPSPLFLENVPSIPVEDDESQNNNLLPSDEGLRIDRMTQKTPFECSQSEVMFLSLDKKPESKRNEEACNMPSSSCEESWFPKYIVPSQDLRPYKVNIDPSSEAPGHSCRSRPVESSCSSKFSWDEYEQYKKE

[5] = biological target: T2, Interleukin-1 receptor-associated kinase 4 (Homo sapiens, UniProt Q9NWZ3)
T2 sequence (Q9NWZ3 whole entry): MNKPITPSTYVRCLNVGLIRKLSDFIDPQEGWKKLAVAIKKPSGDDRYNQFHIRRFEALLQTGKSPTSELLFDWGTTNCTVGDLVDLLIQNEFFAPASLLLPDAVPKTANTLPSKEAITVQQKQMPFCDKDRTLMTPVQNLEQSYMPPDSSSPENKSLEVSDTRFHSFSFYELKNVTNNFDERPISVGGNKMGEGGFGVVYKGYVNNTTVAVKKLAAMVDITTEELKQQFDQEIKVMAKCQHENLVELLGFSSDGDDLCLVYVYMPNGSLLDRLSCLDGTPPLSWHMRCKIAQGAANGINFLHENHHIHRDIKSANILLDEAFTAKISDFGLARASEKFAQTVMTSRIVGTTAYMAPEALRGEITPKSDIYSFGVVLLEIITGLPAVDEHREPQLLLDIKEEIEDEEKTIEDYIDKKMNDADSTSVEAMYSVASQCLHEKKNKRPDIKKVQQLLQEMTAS

[6] = biological target: Mitogen-activated protein kinase 1 (Homo sapiens, UniProt P28482)
Chain of Mitogen-activated protein kinase 1 (P28482 whole entry): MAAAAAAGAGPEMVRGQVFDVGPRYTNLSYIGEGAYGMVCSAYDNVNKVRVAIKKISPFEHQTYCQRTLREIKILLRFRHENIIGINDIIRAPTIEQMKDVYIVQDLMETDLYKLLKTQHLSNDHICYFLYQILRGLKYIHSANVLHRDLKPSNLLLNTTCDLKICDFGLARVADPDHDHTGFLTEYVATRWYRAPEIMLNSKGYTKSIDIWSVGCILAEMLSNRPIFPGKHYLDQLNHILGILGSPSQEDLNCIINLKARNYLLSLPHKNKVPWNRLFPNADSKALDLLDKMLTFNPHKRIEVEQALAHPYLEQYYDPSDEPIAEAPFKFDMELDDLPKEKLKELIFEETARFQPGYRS

[7] = biological target: Mitogen-activated protein kinase 14 (Homo sapiens, UniProt Q16539)
Chain of Mitogen-activated protein kinase 14 (Q16539 whole entry): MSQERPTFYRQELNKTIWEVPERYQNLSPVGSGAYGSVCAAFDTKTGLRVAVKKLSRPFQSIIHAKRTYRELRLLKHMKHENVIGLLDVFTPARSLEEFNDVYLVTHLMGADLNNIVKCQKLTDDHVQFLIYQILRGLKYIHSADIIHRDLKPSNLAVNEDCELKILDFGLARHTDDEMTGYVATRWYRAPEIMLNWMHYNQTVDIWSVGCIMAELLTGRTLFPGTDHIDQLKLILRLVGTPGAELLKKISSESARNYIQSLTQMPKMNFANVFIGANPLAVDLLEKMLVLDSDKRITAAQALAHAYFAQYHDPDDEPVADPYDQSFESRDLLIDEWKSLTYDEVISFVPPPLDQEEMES

[8] = biological target: Mitogen-activated protein kinase 9 (Homo sapiens, UniProt P45984)
Chain of Mitogen-activated protein kinase 9 (P45984 whole entry): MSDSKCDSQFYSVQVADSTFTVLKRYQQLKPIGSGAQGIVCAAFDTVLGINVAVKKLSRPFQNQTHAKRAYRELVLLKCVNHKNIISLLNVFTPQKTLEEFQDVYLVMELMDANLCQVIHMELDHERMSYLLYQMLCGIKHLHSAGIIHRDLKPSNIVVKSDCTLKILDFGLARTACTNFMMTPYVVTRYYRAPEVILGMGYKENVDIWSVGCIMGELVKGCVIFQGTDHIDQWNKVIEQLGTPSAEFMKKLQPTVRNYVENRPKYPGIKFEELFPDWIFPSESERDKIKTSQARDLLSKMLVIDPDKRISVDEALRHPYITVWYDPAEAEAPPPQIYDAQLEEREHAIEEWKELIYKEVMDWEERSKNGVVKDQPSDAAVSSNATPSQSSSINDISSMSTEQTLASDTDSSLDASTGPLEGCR

[9] = biological target: High affinity nerve growth factor receptor (Homo sapiens, UniProt P04629)
Chain of High affinity nerve growth factor receptor (P04629 whole entry): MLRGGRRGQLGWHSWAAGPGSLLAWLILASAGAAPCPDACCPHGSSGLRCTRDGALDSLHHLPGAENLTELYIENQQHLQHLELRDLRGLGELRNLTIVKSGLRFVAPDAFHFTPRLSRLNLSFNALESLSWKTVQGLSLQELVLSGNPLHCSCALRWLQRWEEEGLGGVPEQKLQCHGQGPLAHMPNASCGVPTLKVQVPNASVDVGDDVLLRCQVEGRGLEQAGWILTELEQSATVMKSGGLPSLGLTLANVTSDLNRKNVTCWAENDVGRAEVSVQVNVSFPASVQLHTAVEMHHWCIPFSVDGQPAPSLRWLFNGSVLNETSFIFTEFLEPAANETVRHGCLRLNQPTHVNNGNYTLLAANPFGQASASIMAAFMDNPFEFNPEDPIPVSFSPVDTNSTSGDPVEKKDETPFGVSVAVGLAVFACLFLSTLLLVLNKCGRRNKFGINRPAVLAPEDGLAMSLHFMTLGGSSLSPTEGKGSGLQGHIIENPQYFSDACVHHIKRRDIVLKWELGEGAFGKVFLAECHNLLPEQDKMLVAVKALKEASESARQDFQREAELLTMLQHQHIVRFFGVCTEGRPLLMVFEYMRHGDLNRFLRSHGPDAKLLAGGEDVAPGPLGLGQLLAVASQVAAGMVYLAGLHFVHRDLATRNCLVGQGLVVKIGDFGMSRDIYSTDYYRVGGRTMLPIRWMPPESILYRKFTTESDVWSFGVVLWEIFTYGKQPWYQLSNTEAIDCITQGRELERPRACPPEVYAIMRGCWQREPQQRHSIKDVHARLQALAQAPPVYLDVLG

[10] = biological target: Serine/threonine-protein kinase SIK3 (Homo sapiens, UniProt Q9Y2K2)
Chain of Serine/threonine-protein kinase SIK3 (Q9Y2K2 whole entry): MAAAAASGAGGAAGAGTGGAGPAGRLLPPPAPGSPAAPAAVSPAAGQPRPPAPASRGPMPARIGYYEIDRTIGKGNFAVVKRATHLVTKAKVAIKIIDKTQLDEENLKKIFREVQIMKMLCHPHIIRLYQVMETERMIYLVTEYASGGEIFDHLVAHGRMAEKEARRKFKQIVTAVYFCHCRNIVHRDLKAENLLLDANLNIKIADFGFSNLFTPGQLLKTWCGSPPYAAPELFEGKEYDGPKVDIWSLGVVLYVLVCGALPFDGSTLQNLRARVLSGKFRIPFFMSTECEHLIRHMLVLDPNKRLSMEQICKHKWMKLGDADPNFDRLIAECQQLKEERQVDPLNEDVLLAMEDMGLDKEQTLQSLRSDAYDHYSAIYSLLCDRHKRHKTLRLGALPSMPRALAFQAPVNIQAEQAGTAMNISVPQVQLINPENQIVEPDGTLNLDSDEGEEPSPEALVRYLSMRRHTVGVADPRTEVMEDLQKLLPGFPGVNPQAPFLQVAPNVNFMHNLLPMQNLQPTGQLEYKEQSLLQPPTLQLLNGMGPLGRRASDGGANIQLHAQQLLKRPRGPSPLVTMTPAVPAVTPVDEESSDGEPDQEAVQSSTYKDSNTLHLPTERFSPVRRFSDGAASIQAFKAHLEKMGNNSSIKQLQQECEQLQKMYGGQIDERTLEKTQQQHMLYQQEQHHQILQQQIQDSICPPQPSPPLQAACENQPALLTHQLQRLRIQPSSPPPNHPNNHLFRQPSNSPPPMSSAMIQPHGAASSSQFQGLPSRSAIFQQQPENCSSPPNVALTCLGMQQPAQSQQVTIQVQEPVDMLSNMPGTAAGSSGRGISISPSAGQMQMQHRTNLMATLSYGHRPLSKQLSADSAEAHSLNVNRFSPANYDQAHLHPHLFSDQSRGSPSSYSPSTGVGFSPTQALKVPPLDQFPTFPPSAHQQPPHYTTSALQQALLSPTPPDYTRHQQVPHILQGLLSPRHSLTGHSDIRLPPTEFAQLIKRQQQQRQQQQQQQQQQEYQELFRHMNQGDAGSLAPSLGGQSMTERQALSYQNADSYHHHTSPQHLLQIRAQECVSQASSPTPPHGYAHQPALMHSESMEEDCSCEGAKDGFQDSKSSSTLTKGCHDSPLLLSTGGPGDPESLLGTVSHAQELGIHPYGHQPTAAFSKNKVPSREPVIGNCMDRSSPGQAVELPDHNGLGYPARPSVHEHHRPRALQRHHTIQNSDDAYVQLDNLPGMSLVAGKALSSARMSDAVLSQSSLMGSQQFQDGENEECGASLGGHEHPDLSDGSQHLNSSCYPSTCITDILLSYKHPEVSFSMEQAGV

[11] = biological target: T3, TGF-beta receptor type-1 (Homo sapiens, UniProt P36897)
T3 sequence (P36897 whole entry): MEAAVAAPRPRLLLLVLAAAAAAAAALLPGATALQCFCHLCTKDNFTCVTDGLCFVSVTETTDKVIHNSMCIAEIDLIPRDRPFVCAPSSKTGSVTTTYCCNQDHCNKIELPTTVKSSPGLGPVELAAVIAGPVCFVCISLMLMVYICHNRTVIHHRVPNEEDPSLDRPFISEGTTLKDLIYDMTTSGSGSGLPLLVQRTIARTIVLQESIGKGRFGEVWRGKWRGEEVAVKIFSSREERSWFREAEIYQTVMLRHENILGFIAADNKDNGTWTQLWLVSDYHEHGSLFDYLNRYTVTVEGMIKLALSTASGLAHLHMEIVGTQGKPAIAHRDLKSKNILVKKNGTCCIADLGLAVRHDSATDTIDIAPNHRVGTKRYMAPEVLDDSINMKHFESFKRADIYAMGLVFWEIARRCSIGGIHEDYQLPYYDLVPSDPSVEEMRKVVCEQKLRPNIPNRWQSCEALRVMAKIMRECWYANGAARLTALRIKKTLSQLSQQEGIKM

Measured: Kd

Chain of Tyrosine-protein kinase Fyn (P06241 whole entry): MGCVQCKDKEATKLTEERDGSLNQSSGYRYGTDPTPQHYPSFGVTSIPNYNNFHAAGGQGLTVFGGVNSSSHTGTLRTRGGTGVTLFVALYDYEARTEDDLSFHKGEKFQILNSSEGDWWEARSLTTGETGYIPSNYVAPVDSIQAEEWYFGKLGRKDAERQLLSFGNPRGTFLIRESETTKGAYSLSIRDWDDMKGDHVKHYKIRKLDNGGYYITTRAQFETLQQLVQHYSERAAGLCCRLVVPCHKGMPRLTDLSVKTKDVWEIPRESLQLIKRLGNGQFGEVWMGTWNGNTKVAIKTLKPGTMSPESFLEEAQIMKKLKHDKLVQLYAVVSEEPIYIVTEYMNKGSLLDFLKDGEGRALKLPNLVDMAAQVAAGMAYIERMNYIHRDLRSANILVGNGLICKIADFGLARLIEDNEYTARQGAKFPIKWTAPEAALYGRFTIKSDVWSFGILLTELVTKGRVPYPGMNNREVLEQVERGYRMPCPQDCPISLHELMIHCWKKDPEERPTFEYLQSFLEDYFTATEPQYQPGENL

Cn1ncc(Cl)c1-c1cc(C(=O)N[C@H](CN)Cc2ccc(F)c(F)c2)oc1Cl [UPROSERTIB]
inactive: [1] > 30 µM | [2] > 30 µM | [3] > 30 µM | [4] > 30 µM | [5] > 30 µM | [6] > 30 µM | [7] > 30 µM | [8] > 30 µM | [9] > 30 µM | [10] > 30 µM | [11] > 30 µM
